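Briefly, cells in 96-well plates were exposed to five compound concentrations for 48 h, and endpoints were estimated by linear interpolation. GI50 = concentration required for 50% inhibition of growth. At the TGI there is no net growth.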 *1 amine or outer side, *2 acyl side, *3 side chain or, on linkers, in order; H or OH if unused. Where a SMILES comes first, the peptide text is derived from it. [ ]: non-standard residue; d: D form. X33 = C=CCC(O[*:1])C(=O)[*:2]; NMeV = CN[CH](C(=O)O)C(C)C; NMeA = CN[CH](C)C(=O)O; βAla = NCCC(=O)O
How the values were obtained:
Assay in all cases: NCI-60 cell line screen, 48 h
[1] = test system: A498 renal
[2] = test system: CCRF-CEM leukemia
[3] = test system: COLO 205 colon
[4] = test system: IGROV1 ovarian
[5] = test system: LOX IMVI melanoma
[6] = test system: RXF 393 renal
[7] = test system: SF-539 CNS
[8] = test system: NCI-H226 lung
[9] = test system: NCI/ADR-RES ovarian
[10] = test system: PC-3 prostate
[11] = test system: SR leukemia

SMILES | TGI [1] [µM] | TGI [2] [µM] | TGI [3] [µM] | TGI [4] [µM] | TGI [5] [µM] | TGI [6] [µM] | TGI [7] [µM] | TGI [8] [µM] | TGI [9] [µM] | TGI [10] [µM] | TGI [11] [µM] | GI50 [1] [µM] | GI50 [2] [µM] | GI50 [3] [µM] | GI50 [4] [µM] | GI50 [8] [µM] | GI50 [9] [µM] | GI50 [10] [µM] | GI50 [7] [µM] | GI50 [11] [µM]
CC(c1ccccc1)/[N+]([O-])=C/c1ccccc1 (centres undefined) | > 100 | > 100 | > 100 | > 100 | > 100 | > 100 | > 100 |  |  |  |  |  |  |  |  |  |  |  |  | 
Nc1nc(N)c2[nH]cnc2n1 (tested in a mixture with another compound) | 45.1 | > 100 | > 100 | > 100 | > 100 | 80.6 | > 100 | > 100 | > 100 | 94.6 | > 100 |  |  |  |  |  |  |  |  | 
C=CCC1OC(=O)CCNC(=O)C(C)N(C)C(=O)C(C(C)C)N(C)C(=O)C(C(C)CC)NC(=O)C2CCCN2C1=O (centres undefined) (cyclo([X33]PI[NMeV][NMeA][βAla]); configuration not given here) |  | > 100 | > 100 | > 100 | 5.17 |  | > 100 |  | > 100 | > 100 | > 100 |  |  |  |  |  |  |  |  | 
Cc1ccc2c(C)c3ccc4ccccc4c3c[n+]2c1 | > 100 | 46.4 | 27.2 | > 100 | 99.8 | 67.4 | 33.7 | 25.4 |  |  | 42.8 |  |  |  |  |  |  |  |  | 
C/C(=N\NC(=S)Nc1ccc(C)cc1)c1nc2ncccc2[nH]1 | 23.4 | 11.5 | 17.6 | 17.3 | 8.29 |  | 5.71 | 8.01 | > 100 | 32.5 | > 100 |  |  |  |  |  |  |  |  | 
CC1OC1C(=O)C1(O)C(C)C(O)C23OC2(C(O)c2c(O)cccc2C3=O)C1O (centres undefined) | 1.2 |  | 0.223 | 0.775 | 0.629 | 0.599 | 0.276 | 0.838 | 0.732 |  |  |  |  |  |  |  |  |  |  | 
CCSc1nc(=[N+]2CCCC2)ss1 | > 100 | 13.2 | > 49.3 | > 90 | 55.2 | > 83.3 | > 85.6 | > 91.3 | > 100 | > 100 |  |  |  |  |  |  |  |  |  | 
COc1ccc(-c2c3c(nc4nc(SC)nc(SC)c24)CCCC3)cc1OC | > 100 | 90.2 | > 100 | > 100 | > 100 | > 100 | > 100 | > 100 |  | > 100 | 46.4 |  |  |  |  |  |  |  |  | 
C[C@]12CCc3sc(Nc4ccc(O)cc4)nc3C1=CC[C@@H]1[C@@H]2CC[C@]2(C)C(=O)CC[C@@H]12 | 80.6 | > 100 | 3.9 | 5.02 |  |  | 3.59 | 8.52 | > 100 | 8.15 | > 100 | 14.2 | 2.47 | 2 | 1.99 | 2.86 | 3.27 | 2.49 | 1.76 | 2.72
CN1CCN(c2cc(-c3cc4ccccc4o3)oc(=O)c2C#N)CC1 | > 100 | > 100 | > 100 | > 100 | > 100 | > 100 | > 100 | 60.7 |  |  | > 100 |  |  |  |  |  |  |  |  | 
CCOP(=O)(CN=C(c1ccccc1)c1ccccc1)OCC | > 100 | > 100 | > 100 | > 100 | > 100 |  |  | > 100 | > 100 | > 100 | > 100 |  |  |  |  |  |  |  |  | 
O=C(NN1C(=O)CSC1c1ccc(C(F)(F)F)cc1)c1ccncc1 (centres undefined) | > 31.6 | > 100 |  | > 100 | > 100 | > 100 | > 100 | > 100 | > 100 |  |  |  |  |  |  |  |  |  |  | 
NC(=S)N/N=C1\c2ccccc2CCC1CCC1(O)CCc2ccccc2C1=O (centres undefined) |  | 86 | 36.7 | > 100 | 44.3 | 36.3 | 29.5 |  | 79.1 | 88.7 | > 100 |  |  |  |  |  |  |  |  | 
O=C1OCC/C1=C/c1ccc(N=Nc2c(O)ccc3ccccc23)cc1 | 34.2 | 53.5 | 58 | 54.7 |  | 36.8 | 36.6 | 36 | 41.7 | 49.6 | 37.5 |  |  |  |  |  |  |  |  | 
Cc1ccc(Nc2nc(NS(=O)(=O)c3cc(C(=O)Nc4ccc(Cl)cc4)c(Cl)cc3S)n[nH]2)cc1 |  | > 100 | > 100 | > 100 | > 100 | > 100 | > 100 |  | > 100 | > 100 | > 100 |  |  |  |  |  |  |  |  | 
CCc1nnc(-c2nsc3ccccc23)s1 |  | > 100 | > 100 | > 100 | > 100 | > 100 | > 100 |  |  |  | > 100 |  |  |  |  |  |  |  |  | 
CC(CCC(=O)O)C1CCC2C3C(O)CC4CC(O)CCC4(C)C3CC(O)C12C (centres undefined) | > 100 | > 100 | > 100 | > 100 | > 100 | > 100 | > 100 | > 100 | > 100 | > 100 | > 100 |  |  |  |  |  |  |  |  | 
COC1=CC(=O)c2c(O)c3c(c(O)c2C1=O)C=C(C)OC3O (centres undefined) | 4.91 | 16.1 | 0.746 | 5.57 | 1.9 | 3.92 | 3.4 | 8.24 | 3.76 | 16.3 | 5.46 |  |  |  |  |  |  |  |  | 
